What was measured:
Format in all cases: cell-based
[1] = system: KChIP2 (Homo sapiens); assay: Cardiac ion channel profile
[2] = target: T1, M1 (Homo sapiens, UniProt P11229); assay: Millipore Drug Discovery Safety and Liability Panel
T1 construct: purchased Millipore

[3] = target: T2, Motilin (Homo sapiens, UniProt O43193); assay: as above
T2 construct: purchased Millipore

[4] = target: T3, ADRA1D (DELTA2-79) (Homo sapiens, UniProt P25100); assay: as above
T3 construct: purchased Millipore

[5] = target: T4, LPA3 (Homo sapiens, UniProt Q9UBY5); assay: as above
T4 construct: purchased Millipore
T4 sequence (Q9UBY5 whole entry, species assumed): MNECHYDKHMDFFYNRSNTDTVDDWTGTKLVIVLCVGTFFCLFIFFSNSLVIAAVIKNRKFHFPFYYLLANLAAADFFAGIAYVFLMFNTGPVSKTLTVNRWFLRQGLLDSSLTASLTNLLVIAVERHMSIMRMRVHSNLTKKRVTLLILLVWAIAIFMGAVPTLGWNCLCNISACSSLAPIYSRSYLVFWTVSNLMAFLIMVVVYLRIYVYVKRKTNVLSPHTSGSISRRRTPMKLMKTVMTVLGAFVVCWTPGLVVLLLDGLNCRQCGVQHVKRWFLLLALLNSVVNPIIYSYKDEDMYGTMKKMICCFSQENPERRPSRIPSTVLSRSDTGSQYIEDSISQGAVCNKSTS

[6] = target: T5, OT (Homo sapiens, UniProt P30559); assay: as above
T5 construct: Millipore
T5 sequence (P30559 whole entry): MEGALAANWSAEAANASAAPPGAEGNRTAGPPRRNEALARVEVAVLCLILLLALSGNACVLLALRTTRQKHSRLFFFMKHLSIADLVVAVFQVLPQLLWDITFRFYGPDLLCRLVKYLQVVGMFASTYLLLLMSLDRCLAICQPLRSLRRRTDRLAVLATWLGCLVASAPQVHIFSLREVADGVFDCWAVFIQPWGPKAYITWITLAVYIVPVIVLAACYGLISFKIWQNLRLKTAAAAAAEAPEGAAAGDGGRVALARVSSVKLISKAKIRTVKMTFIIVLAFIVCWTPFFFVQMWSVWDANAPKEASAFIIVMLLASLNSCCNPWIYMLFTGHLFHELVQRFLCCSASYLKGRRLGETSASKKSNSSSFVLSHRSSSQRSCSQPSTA

[7] = target: T6, P2Y1 (Homo sapiens, UniProt P47900); assay: as above
T6 construct: Millipore

[8] = target: T7, S1P3 (Homo sapiens, UniProt Q99500); assay: as above
T7 construct: Millipore

[9] = target: HCN4 (Homo sapiens, UniProt Q9Y3Q4); assay: Cardiac ion channel profile
[10] = target: T8, A2A (Homo sapiens, UniProt P29274); assay: Millipore Drug Discovery Safety and Liability Panel
T8 construct: purchased Millipore
T8 sequence (P29274 whole entry): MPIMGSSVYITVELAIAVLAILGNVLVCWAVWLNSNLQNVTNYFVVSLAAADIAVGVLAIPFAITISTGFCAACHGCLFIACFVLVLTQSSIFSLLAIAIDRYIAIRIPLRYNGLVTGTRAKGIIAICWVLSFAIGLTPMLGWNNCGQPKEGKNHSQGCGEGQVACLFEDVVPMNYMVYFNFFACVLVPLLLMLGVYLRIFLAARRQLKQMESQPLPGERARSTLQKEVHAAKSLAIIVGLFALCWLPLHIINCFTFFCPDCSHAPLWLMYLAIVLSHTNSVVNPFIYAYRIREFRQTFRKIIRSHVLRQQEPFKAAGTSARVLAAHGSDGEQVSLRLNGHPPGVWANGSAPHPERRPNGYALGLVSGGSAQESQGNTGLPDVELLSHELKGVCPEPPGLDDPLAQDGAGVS

[11] = target: T9, ADRB1 (Homo sapiens, UniProt P08588); assay: as above
T9 construct: purchased Millipore

[12] = target: Kv4.3 (Homo sapiens, UniProt Q9UK17); assay: Cardiac ion channel profile
[13] = system: MCF7 tumor cells; assay: IC50 in MCF7 tumor cells in vitro; conditions: Homo sapiens
[14] = target: Kir2.1 (Homo sapiens, UniProt P63252); assay: Cardiac ion channel profile
[15] = target: T10, CCK2 (Homo sapiens, UniProt P32239); assay: Millipore Drug Discovery Safety and Liability Panel
T10 construct: purchased Millipore

[16] = target: T11, ADRA2A (Homo sapiens, UniProt P08913); assay: as above
T11 construct: purchased Millipore
T11 sequence (P08913 whole entry): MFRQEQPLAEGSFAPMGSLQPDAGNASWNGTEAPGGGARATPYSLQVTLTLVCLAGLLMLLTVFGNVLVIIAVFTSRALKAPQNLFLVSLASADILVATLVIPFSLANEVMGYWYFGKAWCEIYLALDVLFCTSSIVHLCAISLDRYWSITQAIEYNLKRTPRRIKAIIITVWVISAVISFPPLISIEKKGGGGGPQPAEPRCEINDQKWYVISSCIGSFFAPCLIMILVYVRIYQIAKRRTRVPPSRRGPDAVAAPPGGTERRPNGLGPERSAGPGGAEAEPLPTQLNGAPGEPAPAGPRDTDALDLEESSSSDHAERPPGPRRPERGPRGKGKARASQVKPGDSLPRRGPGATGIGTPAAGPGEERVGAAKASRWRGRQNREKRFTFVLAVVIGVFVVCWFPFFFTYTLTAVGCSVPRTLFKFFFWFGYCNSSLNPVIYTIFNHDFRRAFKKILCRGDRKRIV

[17] = target: T12, GPR109A (Homo sapiens, UniProt Q8TDS4); assay: as above
T12 construct: purchased Millipore
T12 sequence (Q8TDS4 whole entry, species assumed): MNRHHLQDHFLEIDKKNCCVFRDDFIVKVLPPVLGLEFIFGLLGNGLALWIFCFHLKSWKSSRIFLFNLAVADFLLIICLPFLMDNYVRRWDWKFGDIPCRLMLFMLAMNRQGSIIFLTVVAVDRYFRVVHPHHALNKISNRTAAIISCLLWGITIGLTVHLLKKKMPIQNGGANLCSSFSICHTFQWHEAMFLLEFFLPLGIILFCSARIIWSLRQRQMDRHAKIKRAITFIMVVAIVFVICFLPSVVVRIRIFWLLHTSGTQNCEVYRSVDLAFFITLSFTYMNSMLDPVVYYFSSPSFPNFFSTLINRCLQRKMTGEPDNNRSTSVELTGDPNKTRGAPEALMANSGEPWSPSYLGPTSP

[18] = system: AKT; assay: AKT inhibition in primary lung endothelial cells with complete loss of Eng expression (western blot); conditions: Endothelial cell; lung mouse endothelial cells with complete loss of Eng expression; VEGF-A stimulation
[19] = target: T13, NK1 (Homo sapiens, UniProt P25103); assay: Millipore Drug Discovery Safety and Liability Panel
T13 construct: purchased Millipore

[20] = target: T14, SST4 (Homo sapiens, UniProt P31391); assay: as above
T14 construct: Millipore

[21] = target: T15, FP (Homo sapiens, UniProt P43088); assay: as above
T15 construct: purchased Millipore
T15 sequence (P43088 whole entry): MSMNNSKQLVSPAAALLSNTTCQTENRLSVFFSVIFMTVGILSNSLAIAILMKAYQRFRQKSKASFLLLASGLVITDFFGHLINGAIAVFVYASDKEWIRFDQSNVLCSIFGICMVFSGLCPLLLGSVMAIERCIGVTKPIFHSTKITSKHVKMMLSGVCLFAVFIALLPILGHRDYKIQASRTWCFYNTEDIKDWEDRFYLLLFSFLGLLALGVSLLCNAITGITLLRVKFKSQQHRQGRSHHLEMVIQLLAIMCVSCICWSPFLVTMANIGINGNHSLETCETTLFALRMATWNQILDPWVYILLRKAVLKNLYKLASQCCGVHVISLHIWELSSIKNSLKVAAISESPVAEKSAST

[22] = target: T16, LPA1 (Homo sapiens, UniProt Q92633); assay: as above
T16 construct: purchased Millipore
T16 sequence (Q92633 whole entry, species assumed): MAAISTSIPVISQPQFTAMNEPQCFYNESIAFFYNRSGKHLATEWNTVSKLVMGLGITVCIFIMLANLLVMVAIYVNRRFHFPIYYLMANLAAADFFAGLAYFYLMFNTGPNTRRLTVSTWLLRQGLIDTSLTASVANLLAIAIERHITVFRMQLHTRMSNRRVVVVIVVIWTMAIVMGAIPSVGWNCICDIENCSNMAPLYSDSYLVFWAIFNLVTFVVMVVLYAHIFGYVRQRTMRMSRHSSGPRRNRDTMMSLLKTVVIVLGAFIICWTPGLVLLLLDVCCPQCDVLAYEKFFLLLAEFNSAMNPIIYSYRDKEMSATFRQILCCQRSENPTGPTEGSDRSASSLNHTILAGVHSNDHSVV

[23] = target: T17, Y2 (Homo sapiens, UniProt P49146); assay: as above
T17 construct: Millipore

[24] = target: T18, CRF1 (Homo sapiens, UniProt P34998); assay: as above
T18 construct: purchased Millipore
T18 sequence (P34998 24-415): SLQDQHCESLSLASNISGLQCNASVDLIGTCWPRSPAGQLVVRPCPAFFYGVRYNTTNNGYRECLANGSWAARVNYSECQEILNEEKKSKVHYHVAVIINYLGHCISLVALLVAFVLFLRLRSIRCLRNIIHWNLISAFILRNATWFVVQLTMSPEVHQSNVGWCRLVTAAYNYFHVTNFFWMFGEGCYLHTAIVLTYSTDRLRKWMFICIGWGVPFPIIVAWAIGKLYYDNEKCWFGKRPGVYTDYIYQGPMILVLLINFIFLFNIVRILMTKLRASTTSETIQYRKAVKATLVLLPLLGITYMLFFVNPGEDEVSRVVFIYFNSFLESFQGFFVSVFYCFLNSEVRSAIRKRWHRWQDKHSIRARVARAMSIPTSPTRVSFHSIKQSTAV

[25] = target: T19, D5 (Homo sapiens, UniProt P21918); assay: as above
T19 construct: purchased Millipore

[26] = target: T20, V2 (Homo sapiens, UniProt P30518); assay: as above
T20 construct: Millipore

[27] = target: Nav1.5 (Homo sapiens, UniProt Q14524); assay: Cardiac ion channel profile
[28] = target: T21, BDKR2 (Homo sapiens, UniProt P30411); assay: Millipore Drug Discovery Safety and Liability Panel
T21 construct: purchased Millipore

[29] = target: T22, A1 (Homo sapiens, UniProt P30542); assay: as above
T22 construct: purchased Millipore
T22 sequence (P30542 whole entry): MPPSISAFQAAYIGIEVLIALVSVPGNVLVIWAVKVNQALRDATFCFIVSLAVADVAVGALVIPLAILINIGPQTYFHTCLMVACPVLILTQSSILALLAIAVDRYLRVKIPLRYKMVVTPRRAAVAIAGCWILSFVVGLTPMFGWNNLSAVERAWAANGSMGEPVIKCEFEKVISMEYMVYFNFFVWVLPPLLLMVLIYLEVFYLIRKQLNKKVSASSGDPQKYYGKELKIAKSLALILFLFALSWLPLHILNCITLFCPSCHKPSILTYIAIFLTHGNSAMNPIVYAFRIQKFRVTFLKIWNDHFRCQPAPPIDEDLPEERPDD

[30] = target: T23, TP (Homo sapiens, UniProt P21731); assay: as above
T23 construct: Millipore
T23 sequence (P21731 whole entry): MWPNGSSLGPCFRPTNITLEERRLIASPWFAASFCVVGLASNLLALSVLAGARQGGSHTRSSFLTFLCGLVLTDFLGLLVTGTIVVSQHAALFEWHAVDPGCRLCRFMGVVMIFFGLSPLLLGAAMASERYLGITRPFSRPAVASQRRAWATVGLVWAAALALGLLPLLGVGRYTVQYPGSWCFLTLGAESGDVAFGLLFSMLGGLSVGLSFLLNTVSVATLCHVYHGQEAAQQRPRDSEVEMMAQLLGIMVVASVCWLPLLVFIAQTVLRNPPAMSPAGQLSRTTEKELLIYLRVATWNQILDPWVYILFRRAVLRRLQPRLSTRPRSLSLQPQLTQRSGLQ

[31] = read-out: ANTAGONIST mean % inhibition
[32] = read-out: AGONIST mean % increase in activity

T3 sequence (P25100 with tags, fused parts or gaps limits assumed): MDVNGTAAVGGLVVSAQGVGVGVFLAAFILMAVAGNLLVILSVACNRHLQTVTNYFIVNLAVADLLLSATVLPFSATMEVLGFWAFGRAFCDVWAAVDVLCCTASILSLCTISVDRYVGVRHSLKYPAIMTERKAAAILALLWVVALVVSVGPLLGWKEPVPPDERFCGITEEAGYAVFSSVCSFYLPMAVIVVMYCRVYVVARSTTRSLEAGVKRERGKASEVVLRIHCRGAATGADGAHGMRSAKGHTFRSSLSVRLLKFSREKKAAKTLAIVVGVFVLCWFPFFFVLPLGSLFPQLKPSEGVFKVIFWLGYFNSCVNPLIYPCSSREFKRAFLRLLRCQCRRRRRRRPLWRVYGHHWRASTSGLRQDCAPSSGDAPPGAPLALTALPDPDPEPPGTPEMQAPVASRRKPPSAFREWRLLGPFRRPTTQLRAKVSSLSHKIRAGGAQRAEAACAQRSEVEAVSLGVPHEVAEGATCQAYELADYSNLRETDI
T2 sequence (O43193 whole entry): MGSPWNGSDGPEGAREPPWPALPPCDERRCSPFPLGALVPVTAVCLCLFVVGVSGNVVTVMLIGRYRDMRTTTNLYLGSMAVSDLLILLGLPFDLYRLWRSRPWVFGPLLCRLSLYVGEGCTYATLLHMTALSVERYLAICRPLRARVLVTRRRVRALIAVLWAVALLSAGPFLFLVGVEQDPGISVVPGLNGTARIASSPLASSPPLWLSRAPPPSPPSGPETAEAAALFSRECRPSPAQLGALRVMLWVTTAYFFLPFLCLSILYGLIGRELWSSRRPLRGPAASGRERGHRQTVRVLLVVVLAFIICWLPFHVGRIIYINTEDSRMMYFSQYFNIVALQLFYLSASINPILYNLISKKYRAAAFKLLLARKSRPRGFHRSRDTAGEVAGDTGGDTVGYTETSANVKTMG

SMILES: CCN1C(=O)COc2nc(-c3ccc(C4(N)CC(O)C4)cc3)c(-c3ccccc3)cc21.O=C(O)C(O)C(O)C(=O)O [VAD044, 6-(4-(1-amino-3-hydroxycyclobutyl)phenyl)-1-ethyl-7-phenyl-1H-pyrido[2,3-b][1,4]oxazin-2(3H)-one L-tartrate]
- inhibition at 10 µM [1]: < 25%
- activation at 10 µM ([2]; M1, 10 μM, read-out: AGONIST mean % increase in activity): -0.7%
- inhibition at 10 µM [2, 31]: -3.4%
- activation at 10 µM [3, 32]: -0.3%
- inhibition at 10 µM [3, 31]: 50%
- activation at 10 µM ([4]; ADRA1D (DELTA2-79), 10 μM, read-out: AGONIST mean % increase in activity): -0.1%
- inhibition at 10 µM [4, 31]: 7%
- activation at 10 µM ([5]; LPA3, 10 μM, read-out: AGONIST mean % increase in activity): -0.7%
- inhibition at 10 µM [5, 31]: -0.2%
- activation at 10 µM [6, 32]: -1.2%
- inhibition at 10 µM [6, 31]: 29.5%
- AGONIST mean % increase in activity ([7]; 10 μM): 1%
- inhibition at 10 µM [7, 31]: 50.6%
- activation at 10 µM ([8]; S1P3, 10 μM, read-out: AGONIST mean % increase in activity): -0.4%
- inhibition at 10 µM [8, 31]: -0.6%
- inhibition at 10 µM [9]: < 25%
- AGONIST mean % increase in activity ([10]; A2A, 10 μM): 2.3%
- inhibition at 10 µM [10, 31]: 12.5%
- activation at 10 µM ([11]; ADRB1, 10 μM, read-out: AGONIST mean % increase in activity): -0.1%
- inhibition at 10 µM [11, 31]: 4.2%
- inhibition at 10 µM [12]: < 25%
- IC50 [13]: ~50 nM
- inhibition at 10 µM [14]: < 25%
- activation at 10 µM ([15]; CCK2, 10 μM, read-out: AGONIST mean % increase in activity): -0.2%
- inhibition at 10 µM [15, 31]: 8.3%
- activation at 10 µM ([16]; ADRA2A, 10 μM, read-out: AGONIST mean % increase in activity): -0.2%
- inhibition at 10 µM [16, 31]: 11.8%
- activation at 10 µM ([17]; GPR109A, 10 μM, read-out: AGONIST mean % increase in activity): -0.7%
- inhibition at 10 µM [17, 31]: 3.1%
- IC50 [18]: 93 nM
- activation at 10 µM ([19]; NK1, 10 μM, read-out: AGONIST mean % increase in activity): -1.4%
- inhibition at 10 µM [19, 31]: 2.4%
- activation at 10 µM ([20]; SST4, 10 μM, read-out: AGONIST mean % increase in activity): -0.8%
- inhibition at 10 µM [20, 31]: 16.5%
- activation at 10 µM ([21]; FP, 10 μM, read-out: AGONIST mean % increase in activity): -0.7%
- inhibition at 10 µM [21, 31]: 13.6%
- activation at 10 µM [22, 32]: -1.3%
- inhibition at 10 µM [22, 31]: 57.4%
- activation at 10 µM ([23]; Y2, 10 μM, read-out: AGONIST mean % increase in activity): -2.2%
- inhibition at 10 µM [23, 31]: -5.7%
- activation at 10 µM ([24]; CRF1, 10 μM, read-out: AGONIST mean % increase in activity): 0%
- inhibition at 10 µM [24, 31]: 2.3%
- activation at 10 µM [25, 32]: -0.8%
- inhibition at 10 µM [25, 31]: 35.4%
- activation at 10 µM [26, 32]: -1.5%
- inhibition at 10 µM [26, 31]: 22.8%
- inhibition at 10 µM [27]: < 25%
- activation at 10 µM ([28]; BDKR2, 10 μM, read-out: AGONIST mean % increase in activity): -0.4%
- inhibition at 10 µM [28, 31]: 14.6%
- activation at 10 µM ([29]; A1, 10 μM, read-out: AGONIST mean % increase in activity): 0%
- inhibition at 10 µM [29, 31]: 7.7%
- activation at 10 µM ([30]; TP, 10 μM, read-out: AGONIST mean % increase in activity): -0.5%
- inhibition at 10 µM [30, 31]: 0%

Source: US12466839B2, “Allosteric AKT inhibitors for use in the treatment of Hereditary Hemorrhagic Telangiectasia” (VADERIS THERAPEUTICS AG, priority 2020, dated 2025)
